By IC50 is commonly meant the concentration needed to halve the response being measured. Read a high IC50 as lower potency.

Structures can show the parent of a compound that is named as a salt.

The values that follow come from article PMC6582940 (Molecular pharmaceutics, 2018).

In this assay the target is ABCB1 (Homo sapiens, UniProt P08183). In words: competition of […]IAAP photoaffinity labeling in ABCB1 membranes. The format is binding.
Sequence of ABCB1 (P08183 whole entry): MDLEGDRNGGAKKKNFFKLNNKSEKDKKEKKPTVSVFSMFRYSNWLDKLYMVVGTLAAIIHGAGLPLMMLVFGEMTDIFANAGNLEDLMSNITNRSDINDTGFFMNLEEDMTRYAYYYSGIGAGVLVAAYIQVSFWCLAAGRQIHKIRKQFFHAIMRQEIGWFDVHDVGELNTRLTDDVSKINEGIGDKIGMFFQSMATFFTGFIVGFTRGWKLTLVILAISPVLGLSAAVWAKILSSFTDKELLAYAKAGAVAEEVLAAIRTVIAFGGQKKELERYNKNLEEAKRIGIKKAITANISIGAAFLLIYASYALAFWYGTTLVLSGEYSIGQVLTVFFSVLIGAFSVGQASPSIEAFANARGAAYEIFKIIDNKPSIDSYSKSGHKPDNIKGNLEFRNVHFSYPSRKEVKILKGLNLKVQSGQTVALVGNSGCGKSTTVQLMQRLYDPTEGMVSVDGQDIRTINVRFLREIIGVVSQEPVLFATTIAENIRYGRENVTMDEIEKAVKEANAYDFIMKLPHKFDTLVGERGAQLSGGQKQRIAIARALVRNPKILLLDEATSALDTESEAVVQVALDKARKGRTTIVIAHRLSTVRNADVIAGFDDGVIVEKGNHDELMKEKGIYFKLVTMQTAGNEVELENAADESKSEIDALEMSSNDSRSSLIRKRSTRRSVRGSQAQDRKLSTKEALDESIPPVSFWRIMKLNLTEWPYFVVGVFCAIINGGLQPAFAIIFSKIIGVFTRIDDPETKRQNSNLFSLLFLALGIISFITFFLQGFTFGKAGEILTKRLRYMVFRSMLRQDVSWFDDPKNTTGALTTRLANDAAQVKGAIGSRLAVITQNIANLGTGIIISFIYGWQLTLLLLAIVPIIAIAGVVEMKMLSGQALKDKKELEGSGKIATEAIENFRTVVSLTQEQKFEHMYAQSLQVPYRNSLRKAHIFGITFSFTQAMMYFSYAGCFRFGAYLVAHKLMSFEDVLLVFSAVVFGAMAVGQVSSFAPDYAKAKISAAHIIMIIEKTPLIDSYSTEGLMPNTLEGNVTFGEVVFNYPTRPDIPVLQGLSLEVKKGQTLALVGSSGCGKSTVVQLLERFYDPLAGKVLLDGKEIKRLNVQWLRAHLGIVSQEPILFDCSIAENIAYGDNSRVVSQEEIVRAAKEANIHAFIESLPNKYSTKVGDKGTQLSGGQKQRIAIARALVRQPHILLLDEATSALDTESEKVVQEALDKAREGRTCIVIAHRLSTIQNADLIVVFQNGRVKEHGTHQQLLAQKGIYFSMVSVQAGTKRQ

Molecule `COc1ccc(CCC2c3cc(OCc4ccccc4)c(OC)cc3CCN2C)cc1OCc1ccccc1` (racemic) [isoquinoline 2, (±)-7-benzyloxy-1-(3-benzyloxy-4-methoxyphenethyl)-1,2,3,4-tetrahydro-6-methoxy-2-methylisoquinoline oxalate] came in with a concentration for half-maximal inhibition (IC50) of 63 ± 12 nM.
